Structures can show the parent of a compound that is named as a salt. Where two headings read alike, the source gives them in different places.

The test system of this test is mice. Put plainly: Neuropharmacological Assay (SmartCube): automated behavioral signature of compound-treated mice compared with a database of reference drug classes. The format is in vivo. Particulars: for minimal effective dose: Mus musculus, ip. The essentials: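 i.p. dosing 15 min pre-test (NMP/PEG/propylene glycol vehicle); 3 doses, 3.0 mg/kg reported. Output = class-match probability per behavioural effect. Potency runs 0.3, 1, 3, 10 mpk (range adjusted as needed); MED = dose with ≥45% total activity.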

Where [1] appears, read: minimal effective dose: dose having 45% or more total activity in SmartCube, i.p., if only one dose tested, that dose is shown, read-out: MED.
Where [2] appears, read: SmartCube class probability, 3.0 mg/kg i.p., 15 min before test.
Setting [3] is: SmartCube class probability, 3.0 mg/kg i.p., 15 min before test, hydrochloride, 3 mg/kg.
The mark [4] stands for this setting: dose having 45% or more total activity in SmartCube, i.p., if only one dose was tested, that dose is shown, read-out: MED (minimal effective dose).
Where [5] appears, read: probability that activity matches this class of agents, 3.0 mg/kg i.p., 15 min before test.
Setting [6] is: probability that activity matches this class of agents, 3.0 mg/kg i.p., 15 min before test, hydrochloride, 3 mg/kg.
Where [7] appears, read: dose having 45% or more total activity in SmartCube, i.p., if only one dose was tested, that dose is shown, hydrochloride.
[8] abbreviates: minimal effective dose: dose having 45% or more total activity in SmartCube, i.p., if only one dose was tested, that dose is shown, read-out: MED.
Where [9] appears, read: SmartCube probability class, 3.0 mg/kg dose, i.p. 15 min before the behavioral test.
Where [10] appears, read: SmartCube probability class, 3.0 mg/kg dose, i.p. 15 min before the behavioral test, formate salt, 3 mg/kg.

`NC1CCc2c(C(F)(F)F)csc2C1` (single isomer, unassigned) [Compound 243, 3-(trifluoromethyl)-4,5,6,7-tetrahydrobenzothiophen-6-amine hydrochloride]: the minimal effective dose under setting [1] stood at 3 mg/kg. Under setting [2], the AG entry is recorded as “ND (^ <4%)”, the AN entry is given as “ND (^ <4%)”, the AP result was “ND (^ <4%)” and the AX result was “ND (^ <4%)”. For the same compound, under setting [2], the CE entry is reported as “ND (^ <4%)”, the HL entry was “ND (^ <4%)”, the MS result was “ND (^ <4%)” and the PS entry is listed as “ND (^ <4%)”. Further, under setting [2], the SH result is on record as “ND (^ <4%)” and the UK result is listed as “ND (^ <4%)”. In addition, the AD result under setting [3] is listed as “++ (≥24%)”.

Regarding `CNC1(C)CCc2cc(C(F)(F)F)sc2C1.Cl` (single isomer, unassigned) [Compound 245, N, 6-dimethyl-2-(trifluoromethyl)-5,7-dihydro-4H-benzothiophen-6-amine hydrochloride], the minimal effective dose under setting [1] was 3 mg/kg. For the same compound, under setting [2], the AG entry is listed as “ND (^ <4%)”, the AN entry is given as “ND (^ <4%)”, the AX result was “ND (^ <4%)” and the CE entry is on record as “ND (^ <4%)”. In addition, under setting [2], the HL result was “ND (^ <4%)”, the MS result was “ND (^ <4%)”, the PS entry was “ND (^ <4%)” and the SH result is recorded as “ND (^ <4%)”. Under setting [3], the AD result was “++ (≥24%)”, the AP result is reported as “ND (^ <4%)” and the UK result was “+ (≥4%)”.

Regarding `CNC1COc2csc(Cl)c2C1` (centres unmarked) [Compound 87, 5-chloro-N-methyl-3,4-dihydro-2H-thieno[3,4-b]pyran-3-amine hydrochloride], under setting [4], the minimal effective dose turned out to be 3 mg/kg. Under setting [5], the AD result is given as “ND (^ <4%)”, the AG result is listed as “ND (^ <4%)”, the AN result was “ND (^ <4%)” and the AP entry was “+++ (≥49%)”. Under setting [5], the AX entry is “ND (^ <4%)”, the CE result is recorded as “ND (^ <4%)”, the HL result is “ND (^ <4%)” and the MS entry is reported as “ND (^ <4%)”. In addition, under setting [5], the PS result was “ND (^ <4%)”, the SH entry is on record as “ND (^ <4%)” and the UK entry is “ND (^ <4%)”.

Turning to `CNC1COc2c(C(F)(F)F)csc2C1` (centres unmarked) [Compound 248, N-methyl-3-(trifluoromethyl)-6,7-dihydro-5H-thieno[3,2-b]pyran-6-amine hydrochloride], the minimal effective dose under setting [1] turned out to be 1 mg/kg. Moreover, under setting [2], the AD entry is listed as “+++ (≥49%)”, the AN entry is reported as “ND (^ <4%)”, the AP result is listed as “ND (^ <4%)” and the AX entry is listed as “ND (^ <4%)”. For the same compound, under setting [2], the CE result was “ND (^ <4%)”, the HL result is recorded as “ND (^ <4%)”, the MS result was “ND (^ <4%)” and the PS entry is “ND (^ <4%)”. In addition, under setting [2], the SH entry was “ND (^ <4%)” and the UK entry is “ND (^ <4%)”.

As to `Cl.c1cc2c(s1)CC(N1CCOCC1)CC2` (single isomer, unassigned) [Compound 22, 4-(4,5,6,7-tetrahydrobenzo[b]thiophen-6-yl)morpholine hydrochloride], under setting [4], the minimal effective dose was more than 10 mg/kg. Further, under setting [5], the AD result was “ND (^ <4%)”, the AG entry is “ND (^ <4%)”, the AN entry is “ND (^ <4%)” and the AP entry is “ND (^ <4%)”. Under setting [5], the AX result is on record as “ND (^ <4%)”, the CE entry is recorded as “ND (^ <4%)”, the HL entry is reported as “ND (^ <4%)” and the MS result is given as “ND (^ <4%)”. Besides, under setting [5], the PS entry is listed as “ND (^ <4%)” and the SH entry is “ND (^ <4%)”. For the same compound, the UK entry under setting [6] is given as “+ (≥4%)”.

With `CNC1CCc2c(C)csc2C1` (single isomer, unassigned) [Compound 44, N, 3-dimethyl-4,5,6,7-tetrahydrobenzothiophen-6-amine hydrochloride], under setting [7], the “MED (minimal effective dose)” value is reported as 1.0 mpk. Besides, under setting [5], the AG entry is “ND (^ <4%)”, the AN entry is listed as “ND (^ <4%)”, the AX entry is “ND (^ <4%)” and the CE result was “ND (^ <4%)”. Moreover, under setting [5], the HL result is recorded as “ND (^ <4%)”, the MS result is “ND (^ <4%)”, the PS result is given as “ND (^ <4%)” and the SH entry is recorded as “ND (^ <4%)”. In addition, the UK entry under setting [5] was “ND (^ <4%)”. In addition, under setting [6], the AD entry is recorded as “++ (≥24%)” and the AP entry is listed as “+++ (≥49%)”.

For `CNC1COc2sccc2C1` (single isomer, unassigned) [Compound 293, N-methyl-3,4-dihydro-2H-thieno[2,3-b]pyran-3-amine formate salt], the minimal effective dose under setting [8] was less than 3 mg/kg. In addition, under setting [9], the AD result is “ND (^ <4%)”, the AG entry is reported as “ND (^ <4%)”, the AN entry is given as “ND (^ <4%)” and the AX result is “ND (^ <4%)”. Under setting [9], the CE result was “ND (^ <4%)”, the HL entry was “ND (^ <4%)”, the MS result is recorded as “ND (^ <4%)” and the PS result was “ND (^ <4%)”. Moreover, under setting [9], the SH result is “ND (^ <4%)”. For the same compound, under setting [10], the AP result is recorded as “++++ (≥74%)” and the UK result is on record as “ND (^ <4%)”.

For the compound `CNC1COc2cc(F)sc2C1` (centres unmarked) [Compound 130, 2-fluoro-N-methyl-6,7-dihydro-5H-thieno[3,2-b]pyran-6-amine hydrochloride], the minimal effective dose under setting [4] is less than 3 mg/kg. In addition, under setting [5], the AD entry is “ND (^ <4%)”, the AG entry is reported as “ND (^ <4%)”, the AN entry is listed as “ND (^ <4%)” and the AP result was “++++ (≥74%)”. In addition, under setting [5], the AX result was “ND (^ <4%)”, the CE result was “ND (^ <4%)”, the HL entry is given as “ND (^ <4%)” and the MS entry is “ND (^ <4%)”. Besides, under setting [5], the PS result was “ND (^ <4%)”, the SH entry is reported as “ND (^ <4%)” and the UK result is “ND (^ <4%)”.

Turning to `CNC1COc2c(C)csc2C1` (single isomer, unassigned) [Compound 297, N, 3-dimethyl-6,7-dihydro-5H-thieno[3,2-b]pyran-6-amine hydrochloride], the minimal effective dose under setting [8] stood at 3 mg/kg. Also, under setting [9], the AD result was “ND (^ <4%)”, the AG result is listed as “ND (^ <4%)”, the AN entry is “ND (^ <4%)” and the AP result is on record as “ND (^ <4%)”. Under setting [9], the CE entry is listed as “ND (^ <4%)”, the HL result is reported as “ND (^ <4%)”, the MS entry was “ND (^ <4%)” and the PS result was “ND (^ <4%)”. In addition, under setting [9], the SH result is recorded as “ND (^ <4%)” and the UK entry was “ND (^ <4%)”. Besides, under “SmartCube probability class, 3.0 mg/kg dose, i.p. 15 min before the behavioral test, hydrochloride, 3 mg/kg”, the AX result is given as “ND (^ <4%)”.

For the compound `CNC1CCc2sc(-c3ccccc3)cc2C1.Cl` (single isomer, unassigned) [Compound 257, N-methyl-2-phenyl-4,5,6,7-tetrahydrobenzothiophen-5-amine hydrochloride], under setting [2], the AD result is on record as “ND (^ <4%)”, the AG entry was “ND (^ <4%)”, the AN result is “ND (^ <4%)” and the AP entry is listed as “ND (^ <4%)”. For the same compound, under setting [2], the AX result was “ND (^ <4%)”, the CE entry was “ND (^ <4%)”, the HL result was “ND (^ <4%)” and the MS entry was “ND (^ <4%)”. Moreover, under setting [2], the PS entry was “ND (^ <4%)” and the SH result is listed as “ND (^ <4%)”. Moreover, the UK entry under setting [3] is “++ (≥24%)”. Further, the MED (minimal effective dose: dose having 45% or more total activity in SmartCube, i.p., if only one dose tested, that dose is shown) is more than 3 mpk.

With `CNC1CCc2c(C(F)(F)F)csc2C1` (centres unmarked) [Compound 180, N-methyl-3-(trifluoromethyl)-4,5,6,7-tetrahydrobenzothiophen-6-amine hydrochloride], the minimal effective dose under setting [1] is 3 mg/kg. Moreover, under setting [2], the AD result is recorded as “ND (^ <4%)”, the AG result is recorded as “ND (^ <4%)”, the AN result is listed as “ND (^ <4%)” and the AP result is on record as “+++ (≥49%)”. Moreover, under setting [2], the AX entry is “ND (^ <4%)”, the CE entry is given as “ND (^ <4%)”, the HL result was “ND (^ <4%)” and the MS result is “ND (^ <4%)”. Moreover, under setting [2], the PS entry is “ND (^ <4%)”, the SH result is recorded as “ND (^ <4%)” and the UK entry was “ND (^ <4%)”.

Turning to `CNC1CCc2c(F)csc2C1` (single isomer, unassigned) [Compound 83, 3-fluoro-N-methyl-4,5,6,7-tetrahydrobenzothiophen-6-amine hydrochloride], the “MED (minimal effective dose)” value under setting [7] was 1 mpk. Moreover, under setting [5], the AG entry is on record as “ND (^ <4%)”, the AN result is “ND (^ <4%)”, the HL result is reported as “ND (^ <4%)” and the MS result is “ND (^ <4%)”. For the same compound, under setting [5], the PS result was “ND (^ <4%)” and the UK result was “ND (^ <4%)”. Moreover, under setting [6], the AD result is on record as “ND (^ <4%)”, the AP entry is reported as “+++ (≥49%)”, the AX entry is listed as “+ (≥4%)” and the CE entry is “+ (≥4%)”. The SH entry under setting [6] is “ND (^ <4%)”.

Source of the values: patent US20260274814A1, “THIENYL COMPOUNDS FOR THE TREATMENT OF A CENTRAL NERVOUS SYSTEM DISEASE OR DISORDER” (Coreterra Therapeutics, Inc., priority 2023, published 2026).
